The target of one test is cdk4/cyclin D1 (Homo sapiens, UniProt P11802). Put plainly: Cyclin-dependent kinase assay, cdk4/cyclin D1. Particulars: cyclin D1/cdk4; GST-pRb substrate, 10 µM ATP. In kind it is biochemical.
Another test has as its system MDA-MB-435. As to the kind of experiment: In vitro proliferation assay (MTT), MDA-MB-435. It counts as cell-based, human. The conditions noted are these: Homo sapiens, MDA-MB-435, MTT assay; value (SD, n) where given; read-out: MB-435 Breast (IC50 µM). The procedure: (§1) The proliferation of tumor cells can be measured using a tetrazolium salt-based assay known as the MTT (3-[4,5-Dimethylthiazol-2-yl]-2,5-diphenyltetrazolium bromide) assay. […] For the assay, the cell lines are plated onto 96 well plates at 1000 to 2500 cells/well (depending on the properties of the individual cell lines), left to attach and recover overnight. […] After 3 days, the cells are incubated with MTT dye (3-[4,5-Dimethylthiazol-2-yl]-2,5-diphenyltetrazolium bromide, Sigma # M5655, 10 mg/ml in Hank's Buffered Saline) to estimate the amount of live cells remaining vs. concentration for the test compounds. […] The MTT and culture medium is then removed from the cultures and 200 µl of DMSO is added to solubilize the dye from the cell layer. The absorbance at 570 nm is determined for each culture using a Spectramax plate reader (Molecular Devices).
(§2) IC50s were determined from the raw data from either the MTT or SRB assays.
(§3) All of the cell lines were obtained from American Type Tissue Collection, with the ATCC accession number in parentheticals. MCF-7 and MDA-MB-231 cells were grown in improved minimum essential medium (Biofluids) without phenol red, supplemented with 5 % fetal bovine serum, 0.01 mg/ml gentamicin and 3 mM L-glutamine.

For a further test, the system named is PC-3. Put plainly: In vitro proliferation assay (MTT), PC-3. It counts as cell-based, human. Particulars: Homo sapiens, PC-3, MTT assay; value (SD, n) where given; read-out: PC-3 Prostate (IC50 µM). The procedure:
as §1, §2, §3

The next test deals with cdk1/cyclin B (Homo sapiens, UniProt P06493). As to the kind of experiment: Cyclin-dependent kinase assay, cdk1/cyclin B. Particulars: CDK1 IC50, nM, Histone H1, 10 µM ATP.
Chain of cdk1/cyclin B (P06493 whole entry): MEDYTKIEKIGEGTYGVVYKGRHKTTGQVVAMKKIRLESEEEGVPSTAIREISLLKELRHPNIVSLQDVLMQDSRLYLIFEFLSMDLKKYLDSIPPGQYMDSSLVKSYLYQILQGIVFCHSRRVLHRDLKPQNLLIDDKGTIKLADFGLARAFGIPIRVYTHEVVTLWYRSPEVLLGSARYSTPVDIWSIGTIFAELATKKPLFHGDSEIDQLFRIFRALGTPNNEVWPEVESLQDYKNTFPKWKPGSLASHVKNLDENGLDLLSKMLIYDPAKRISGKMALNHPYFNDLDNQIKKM
Chain of cdk1/cyclin B (P14635 whole entry partner): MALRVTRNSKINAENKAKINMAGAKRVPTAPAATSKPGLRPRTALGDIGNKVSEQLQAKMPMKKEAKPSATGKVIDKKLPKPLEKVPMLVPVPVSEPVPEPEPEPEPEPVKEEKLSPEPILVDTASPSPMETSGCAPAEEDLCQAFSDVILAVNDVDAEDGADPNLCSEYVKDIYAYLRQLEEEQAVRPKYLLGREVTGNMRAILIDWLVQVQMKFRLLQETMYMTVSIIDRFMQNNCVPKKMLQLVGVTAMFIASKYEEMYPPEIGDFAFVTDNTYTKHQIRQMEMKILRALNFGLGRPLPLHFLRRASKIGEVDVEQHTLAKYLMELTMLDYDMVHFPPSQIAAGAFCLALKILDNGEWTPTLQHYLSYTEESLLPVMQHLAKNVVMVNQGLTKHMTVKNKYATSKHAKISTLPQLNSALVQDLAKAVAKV
The next test deals with cdk2/cyclin E (Homo sapiens, UniProt P24941). Put plainly: Cyclin-dependent kinase assay, cdk2/cyclin E. Particulars: CDK2 IC50, nM, GST-pRb substrate, 10 µM ATP.

Each structure is given as a SMILES string. pIC50: −log10 of the molar value. Counter-ions that a name gives are not always drawn.

Chain of cdk4/cyclin D1 (P11802 whole entry): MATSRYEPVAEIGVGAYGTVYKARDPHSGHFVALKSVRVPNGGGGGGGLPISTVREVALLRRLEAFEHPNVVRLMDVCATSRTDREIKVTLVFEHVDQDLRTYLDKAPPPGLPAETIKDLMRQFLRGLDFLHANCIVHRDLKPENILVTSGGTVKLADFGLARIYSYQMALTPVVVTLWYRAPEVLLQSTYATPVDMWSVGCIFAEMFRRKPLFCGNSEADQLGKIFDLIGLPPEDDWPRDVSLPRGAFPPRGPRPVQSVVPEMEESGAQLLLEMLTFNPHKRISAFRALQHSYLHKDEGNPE
Chain of cdk4/cyclin D1 (P24385 whole entry partner): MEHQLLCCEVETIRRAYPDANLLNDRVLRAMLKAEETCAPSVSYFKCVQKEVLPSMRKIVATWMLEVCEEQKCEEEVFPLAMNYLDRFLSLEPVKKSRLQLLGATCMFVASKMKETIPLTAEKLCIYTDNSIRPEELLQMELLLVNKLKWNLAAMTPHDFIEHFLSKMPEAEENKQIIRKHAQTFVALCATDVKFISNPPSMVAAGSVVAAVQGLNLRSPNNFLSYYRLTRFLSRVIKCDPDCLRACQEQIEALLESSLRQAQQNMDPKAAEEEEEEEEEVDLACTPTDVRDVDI

Compound `N[C@H]1CC[C@H](Nc2nc(NC3CCN(C(=O)C(c4ccccc4)c4ccccc4)CC3)c3ncn(C4CCCC4)c3n2)CC1` [compound 40, trans-1-{4-[2-(4-Amino-cyclohexylamino)-9-cyclopentyl-9H-purin-6-ylamino]-piperidin-1-yl}-2,2-diphenyl-ethanone dihydrochloride] showed a negative-log IC50 (pIC50) at cdk4/cyclin D1 of 6.62. The half-inhibitory concentration (IC50) in the test on MDA-MB-435 is 0.22 µM; in the test with PC-3, 0.27 µM; against cdk1/cyclin B it was 36 nM; against cdk2/cyclin E, 61 nM.

Turning to `COc1ccc(CC(=O)N2CCC(Nc3nc(N[C@H]4CC[C@H](N)CC4)nc4c3ncn4C3CCCC3)CC2)cc1` [compound 42, trans-1-{4-[2-(4-Amino-cyclohexylamino)-9-cyclopentyl-9H-purin-6-ylamino]-piperidin-1-yl}-2-(4-methoxy-phenyl)-ethanone dihydrochloride], the pIC50 against cdk4/cyclin D1 is 6.99. The half-maximal inhibitory concentration (IC50) in the test with MDA-MB-435 stood at 1.1 µM; with PC-3 it was 1.06 µM; against cdk1/cyclin B, 21 nM; at cdk2/cyclin E, 51 nM.

`C[C@H](O)C(=O)N1CCC(Nc2nc(N[C@H]3CC[C@H](N)CC3)nc3c2ncn3C2CCCC2)CC1` [compound 47, trans-(S)-1-{4-[2-(4-Amino-cyclohexylamino)-9-cyclopentyl-9H-purin-6-ylamino]-piperidin-1-yl}-2-hydroxy-propan-1-one dihydrochloride] had a pIC50 at cdk4/cyclin D1 of 6.44. Besides, the half-maximal inhibitory concentration (IC50) was 1.99 µM in the test with MDA-MB-435, 1.8 µM in the test with PC-3, 36 nM at cdk1/cyclin B and 14 nM against cdk2/cyclin E.

In turn, `N[C@H]1CC[C@H](Nc2nc(NC3CCN(C(=O)Cc4ccc(F)cc4)CC3)c3ncn(C4CCCC4)c3n2)CC1` [compound 48, trans-1-{4-[2-(4-Amino-cyclohexylamino)-9-cyclopentyl-9H-purin-6-ylamino]-piperidin-1-yl}-2-(4-fluoro-phenyl)-ethanone dihydrochloride] had a negative logarithm of the IC50 (pIC50) against cdk4/cyclin D1 of 6.30. For the same compound, the IC50 with MDA-MB-435 came to 0.75 µM; in the test on PC-3, 0.84 µM; against cdk1/cyclin B, 48 nM; against cdk2/cyclin E, 61 nM.

As to `C=CCCC(=O)N1CCC(Nc2nc(N[C@H]3CC[C@H](N)CC3)nc3c2ncn3C2CCCC2)CC1` [compound 49, trans-1-{4-[2-(4-Amino-cyclohexylamino)-9-cyclopentyl-9H-purin-6-ylamino]-piperidin-1-yl}-pent-4-en-1-one dihydrochloride], the pIC50 at cdk4/cyclin D1 was 7.06. Moreover, the IC50 with MDA-MB-435 came to 1.23 µM; in the test on PC-3, 0.92 µM; against cdk1/cyclin B it was 121 nM; at cdk2/cyclin E it was 49 nM.

On cdk4/cyclin D1, `CC(C)(C)CC(=O)N1CCC(Nc2nc(N[C@H]3CC[C@H](N)CC3)nc3c2ncn3C2CCCC2)CC1` [compound 51, trans-1-{4-[2-(4-Amino-cyclohexylamino)-9-cyclopentyl-9H-purin-6-ylamino]-piperidin-1-yl}-3,3-dimethyl-butan-1-one dihydrochloride] had a pIC50 of 7.00. Besides, the IC50 in the test on MDA-MB-435 amounted to 0.42 µM; in the test on PC-3 it was 0.5 µM; against cdk1/cyclin B, 109 nM; on cdk2/cyclin E, 65 nM.

`N[C@H]1CC[C@H](Nc2nc(NC3CCN(C(=O)Cc4ccccc4)CC3)c3ncn(C4CCCC4)c3n2)CC1` [compound 52, trans-1-{4-[2-(4-Amino-cyclohexylamino)-9-cyclopentyl-9H-purin-6-ylamino]-piperidin-1-yl}-2-phenyl-ethanone dihydrochloride] gave a pIC50 at cdk4/cyclin D1 of 6.46. Also, the IC50 turned out to be 0.87 µM with MDA-MB-435, 0.69 µM with PC-3, 40 nM against cdk1/cyclin B and 59 nM at cdk2/cyclin E.

Consider `CCC(=O)N1CCC(Nc2nc(N[C@H]3CC[C@H](N)CC3)nc3c2ncn3C2CCCC2)CC1` [compound 53, trans-1-{4-[2-(4-Amino-cyclohexylamino)-9-cyclopentyl-9H-purin-6-ylamino]-piperidin-1-yl}-propan-1-one dihydrochloride], for which the pIC50 on cdk4/cyclin D1 is 6.03. Also, the half-inhibitory concentration (IC50) in the test with MDA-MB-435 was 1.17 µM; in the test on PC-3, 0.88 µM; at cdk1/cyclin B it was 40 nM; at cdk2/cyclin E, 80 nM.

At cdk4/cyclin D1, `CCCCCC(=O)N1CCC(Nc2nc(N[C@H]3CC[C@H](N)CC3)nc3c2ncn3C2CCCC2)CC1` [compound 54, trans-1-{4-[2-(4-Amino-cyclohexylamino)-9-cyclopentyl-9H-purin-6-ylamino]-piperidin-1-yl}-hexan-1-one dihydrochloride] had a pIC50 of 6.50. For the same compound, the IC50 in the test with MDA-MB-435 came out at 0.6 µM; in the test on PC-3, 0.59 µM; on cdk1/cyclin B, 45 nM; at cdk2/cyclin E, 49 nM.

In turn, `N[C@H]1CC[C@H](Nc2nc(NC3CCN(C(=O)C4CCCCC4)CC3)c3ncn(C4CCCC4)c3n2)CC1` [compound 55, trans-1-{4-[2-(4-Amino-cyclohexylamino)-9-cyclopentyl-9H-purin-6-ylamino]-piperidin-1-yl}-1-cyclohexyl-methanone dihydrochloride] had a negative-log IC50 (pIC50) at cdk4/cyclin D1 of 6.21. Also, the IC50 came to 0.41 µM in the test with MDA-MB-435, 0.57 µM in the test with PC-3, 99 nM at cdk1/cyclin B and 56 nM against cdk2/cyclin E.

Compound `CCCCC(=O)N1CCC(Nc2nc(N[C@H]3CC[C@H](N)CC3)nc3c2ncn3C2CCCC2)CC1` [compound 56, trans-1-{4-[2-(4-Amino-cyclohexylamino)-9-cyclopentyl-9H-purin-6-ylamino]-piperidin-1-yl}-pentan-1-one dihydrochloride] had a pIC50 against cdk4/cyclin D1 of 6.04. The half-inhibitory concentration (IC50) in the test on MDA-MB-435 is 0.61 µM; with PC-3 it was 0.69 µM; on cdk1/cyclin B, 43 nM; on cdk2/cyclin E it was 53 nM.

Take `CCCC(=O)N1CCC(Nc2nc(N[C@H]3CC[C@H](N)CC3)nc3c2ncn3C2CCCC2)CC1` [compound 58, trans-1-{4-[2-(4-Amino-cyclohexylamino)-9-cyclopentyl-9H-purin-6-ylamino]-piperidin-1-yl}-butan-1-one dihydrochloride]: at cdk4/cyclin D1, the negative logarithm of the IC50 (pIC50) is 6.45. Moreover, the IC50 in the test with MDA-MB-435 was 1.01 µM; in the test with PC-3 it was 0.94 µM; against cdk1/cyclin B it was 52 nM; at cdk2/cyclin E, 68 nM.

With `CC(C)C(=O)N1CCC(Nc2nc(N[C@H]3CC[C@H](N)CC3)nc3c2ncn3C2CCCC2)CC1` [compound 59, trans-1-{4-[2-(4-Amino-cyclohexylamino)-9-cyclopentyl-9H-purin-6-ylamino]-piperidin-1-yl) -2-methyl-propan-1-one dihydrochloride], the negative logarithm of the IC50 (pIC50) on cdk4/cyclin D1 was 6.14. For the same compound, the concentration for half-maximal inhibition (IC50) came out at 0.62 µM with MDA-MB-435, 0.96 µM in the test with PC-3, 93 nM against cdk1/cyclin B and 52 nM at cdk2/cyclin E.

For `CC(C)CC(=O)N1CCC(Nc2nc(N[C@H]3CC[C@H](N)CC3)nc3c2ncn3C2CCCC2)CC1` [compound 60, trans-1-{4-[2-(4-Amino-cyclohexylamino)-9-cyclopentyl-9H-purin-6-ylamino]-piperidin-1-yl}-3-methyl-butan-1-one dihydrochloride], at cdk4/cyclin D1, the pIC50 was 7.04. The half-maximal inhibitory concentration (IC50) was determined as 0.69 µM in the test on MDA-MB-435, 0.65 µM with PC-3, 83 nM against cdk1/cyclin B and 37 nM at cdk2/cyclin E.

Consider `N[C@H]1CC[C@H](Nc2nc(NC3CCN(C(=O)Cc4cccs4)CC3)c3ncn(C4CCCC4)c3n2)CC1` [compound 61, trans-1-{4-[2-(4-Amino-cyclohexylamino)-9-cyclopentyl-9H-purin-6-ylamino]-piperidin-1-yl}-2-thiophen-2-yl-ethanone dihydrochloride], for which, on cdk4/cyclin D1, the negative logarithm of the IC50 (pIC50) was 6.12. Further, the half-inhibitory concentration (IC50) with MDA-MB-435 turned out to be 0.61 µM; in the test on PC-3 it was 0.58 µM; on cdk1/cyclin B, 40 nM; against cdk2/cyclin E, 38 nM.

Turning to `N[C@H]1CC[C@H](Nc2nc(NC3CCN(C(=O)C4CC4)CC3)c3ncn(C4CCCC4)c3n2)CC1` [compound 64, trans-1-{4-[2-(4-Amino-cyclohexylamino)-9-cyclopentyl-9H-purin-6-ylamino]-piperidin-1-yl}-1-cyclopropyl-methanone dihydrochloride], the pIC50 at cdk4/cyclin D1 was 6.23. For the same compound, the IC50 was 1.13 µM with MDA-MB-435, 1.03 µM in the test on PC-3, 65 nM against cdk1/cyclin B and 62 nM at cdk2/cyclin E.

As to `COCC(=O)N1CCC(Nc2nc(N[C@H]3CC[C@H](N)CC3)nc3c2ncn3C2CCCC2)CC1` [compound 65, trans-1-{4-[2-(4-Amino-cyclohexylamino)-9-cyclopentyl-9H-purin-6-ylamino]-piperidin-1-yl}-2-methoxy-ethanone dihydrochloride], the pIC50 against cdk4/cyclin D1 was 6.12. Also, the IC50 came to 3.09 µM with MDA-MB-435, 3.29 µM in the test on PC-3, 72 nM against cdk1/cyclin B and 50 nM against cdk2/cyclin E.

(Values after patent publication EP1377579B1 (Aventis Pharmaceuticals Inc., priority 2000, dated 2002).)
